Measured values from patent US8952024B2, “Herbicidal pyrimidone derivatives” (E I du Pont de Nemours and Company, priority 2009, dated 2015).

How the values were obtained:
Experiment in all cases: Test B pre-/postemergence plant response
Format in all cases: in vivo
[1] = tested on: lambsquarters (Chenopodium album); details: for Lambsquarters plant response rating (0 to 100 scale): 62 g ai/ha, 0 is no effect, 13 to 15 days
Procedure, shortened: (§1)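 Visual ratings on a 0–100 scale (100 = complete control) were made versus untreated controls 13–15 days after treatment in a greenhouse. Compounds in surfactant-containing non-phytotoxic solvent were applied preemergence to seeds in loam–sand blend or postemergence to 1- to 4-leaf plants (2–18 cm).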

[2] = tested on: wheat (Triticum aestivum); details: for Wheat plant response rating (0 to 100 scale): 62 g ai/ha, 0 is no effect, 13 to 15 days
Procedure, shortened: as §1

[3] = tested on: yellow nutsedge (Cyperus esculentus); details: for Nutsedge, Yellow plant response rating (0 to 100 scale): 62 g ai/ha, 0 is no effect, 13 to 15 days
Procedure, shortened: as §1

[4] = tested on: large crabgrass (Digitaria sanguinalis); details: for Crabgrass, Large plant response rating (0 to 100 scale): 62 g ai/ha, 0 is no effect, 13 to 15 days
Procedure, shortened: as §1

[5] = tested on: goosegrass (Eleusine indica); details: for Goosegrass plant response rating (0 to 100 scale): 62 g ai/ha, 0 is no effect, 13 to 15 days
Procedure, shortened: as §1

[6] = tested on: johnsongrass (Sorghum halepense); details: for Johnsongrass plant response rating (0 to 100 scale): 62 g ai/ha, 0 is no effect, 13 to 15 days
Procedure, shortened: as §1

[7] = tested on: green foxtail (Setaria viridis); details: for Foxtail, Green plant response rating (0 to 100 scale): 62 g ai/ha, 0 is no effect, 13 to 15 days
Procedure, shortened: as §1

soybean (Glycine max) = details: for Soybean plant response rating (0 to 100 scale): 62 g ai/ha, 0 is no effect, 13 to 15 days
Procedure, shortened: as §1

[8] = tested on: ragweed (common ragweed, Ambrosia elatior); details: for Ragweed plant response rating (0 to 100 scale): 62 g ai/ha, 0 is no effect, 13 to 15 days
Procedure, shortened: as §1

[9] = tested on: velvetleaf (Abutilon theophrasti); details: for Velvetleaf plant response rating (0 to 100 scale): 62 g ai/ha, 0 is no effect, 13 to 15 days
Procedure, shortened: as §1

kochia (Kochia scoparia) = details: for Kochia plant response rating (0 to 100 scale): 62 g ai/ha, 0 is no effect, 13 to 15 days
Procedure, shortened: as §1

[10] = tested on: woolly cupgrass (Eriochloa villosa); details: for Cupgrass, Woolly plant response rating (0 to 100 scale): 62 g ai/ha, 0 is no effect, 13 to 15 days
Procedure, shortened: as §1

[11] = tested on: bermudagrass (Cynodon dactylon); details: for Bermudagrass plant response rating (0 to 100 scale): 62 g ai/ha, 0 is no effect, 13 to 15 days
Procedure, shortened: as §1

[12] = 16 g ai/ha, Postemergence, 0 to 100 scale
[13] = postemergence, 100 is complete control
[14] = Postemergence, 31 g ai/ha, 0 to 100 scale (0 no effect, 100 complete control)
[15] = Postemergence, 125 g ai/ha, scale 0 to 100 (0 no effect, 100 complete control)
[16] = 31 g ai/ha, postemergence, scale 0 to 100, 0 is no effect, 100 is complete control
[17] = Postemergence, 250 g ai/ha, scale 0 to 100 (0 no effect, 100 complete control)
[18] = Postemergence, 125 g ai/ha, visual rating after 13 to 15 days, scale 0 (no effect) to 100 (complete control)

## O=C1CCCC(O)=C1C(=O)c1cnc(-c2ccccc2)n(C2CCCC2)c1=O [Compound 131]
[1]; [12]
  Plant response rating, Lambsquarters: 75
[1]; [13]
  Lambsquarters plant response rating (0 to 100 scale): 95
[1]; [14]
  Plant response rating, Lambsquarters: 85
[1]; [15]
  Plant response rating, Lambsquarters: 98
[2]; [12]
  Plant response rating, Wheat: 0
[2]; [13]
  Wheat plant response rating (0 to 100 scale): 0
[2]; [14]
  Plant response rating, Wheat: 0
[2]; [15]
  Plant response rating, Wheat: 0
[3]; [12]
  Plant response rating, Nutsedge, Yellow: 0
[3]; [13]
  Nutsedge, Yellow plant response rating (0 to 100 scale): 25
[3]; [14]
  Plant response rating, Nutsedge, Yellow: 15
[3]; [15]
  Plant response rating, Nutsedge, Yellow: 45
[4]; [12]
  Plant response rating, Crabgrass, Large: 65
[4]; [13]
  Crabgrass, Large plant response rating (0 to 100 scale): 75
[4]; [14]
  Plant response rating, Crabgrass, Large: 75
[4]; [15]
  Plant response rating, Crabgrass, Large: 80
[5]; [12]
  Plant response rating, Goosegrass: 65
[5]; [13]
  Goosegrass plant response rating (0 to 100 scale): 65
[5]; [14]
  Plant response rating, Goosegrass: 65
[5]; [15]
  Plant response rating, Goosegrass: 75
[6]; [12]
  Plant response rating, Johnsongrass: 0
[6]; [13]
  Johnsongrass plant response rating (0 to 100 scale): 25
[6]; [14]
  Plant response rating, Johnsongrass: 5
[6]; [15]
  Plant response rating, Johnsongrass: 50
[7]; [12]
  Plant response rating, Foxtail, Green: 40
[7]; [13]
  Foxtail, Green plant response rating (0 to 100 scale): 90
[7]; [14]
  Plant response rating, Foxtail, Green: 70
[7]; [15]
  Plant response rating, Foxtail, Green: 95
Soybean (Glycine max); [12]
  Plant response rating, Soybean: 75
Soybean (Glycine max); [13]
  Soybean plant response rating (0 to 100 scale): 95
Soybean (Glycine max); [14]
  Plant response rating, Soybean: 75
Soybean (Glycine max); [15]
  Plant response rating, Soybean: 98
[8]; [12]
  Plant response rating, Ragweed: 65
[8]; [13]
  Ragweed plant response rating (0 to 100 scale): 85
[8]; [14]
  Plant response rating, Ragweed: 80
[8]; [15]
  Plant response rating, Ragweed: 95
[9]; [12]
  Plant response rating, Velvetleaf: 70
[9]; [13]
  Velvetleaf plant response rating (0 to 100 scale): 85
[9]; [14]
  Plant response rating, Velvetleaf: 80
[9]; [15]
  Plant response rating, Velvetleaf: 98
Kochia (Kochia scoparia); [12]
  Plant response rating, Kochia: 20
Kochia (Kochia scoparia); [13]
  Kochia plant response rating (0 to 100 scale): 60
Kochia (Kochia scoparia); [14]
  Plant response rating, Kochia: 35
Kochia (Kochia scoparia); [15]
  Plant response rating, Kochia: 75
[10]; [12]
  Plant response rating, Cupgrass, Woolly: 10
[10]; [13]
  Cupgrass, Woolly plant response rating (0 to 100 scale): 60
[10]; [14]
  Plant response rating, Cupgrass, Woolly: 50
[10]; [15]
  Plant response rating, Cupgrass, Woolly: 65
[11]; [12]
  Plant response rating, Bermudagrass: 60
[11]; [13]
  Bermudagrass plant response rating (0 to 100 scale): 75
[11]; [14]
  Plant response rating, Bermudagrass: 65
[11]; [15]
  Plant response rating, Bermudagrass: 85

## O=C1CCCC(OC(=O)C2CC2)=C1C(=O)c1cnc(-c2ccccc2)n(-c2ccccc2)c1=O [Compound 88]
[1]; [16]
  Plant response rating, Lambsquarters: 95
[1]; [13]
  Lambsquarters plant response rating (0 to 100 scale): 98
[1]; [17]
  Plant response rating, Lambsquarters: 100
[2]; [16]
  Plant response rating, Wheat: 0
[2]; [13]
  Wheat plant response rating (0 to 100 scale): 5
[2]; [17]
  Plant response rating, Wheat: 5
[3]; [16]
  Plant response rating, Nutsedge, Yellow: 25
[3]; [13]
  Nutsedge, Yellow plant response rating (0 to 100 scale): 65
[3]; [17]
  Plant response rating, Nutsedge, Yellow: 75
[4]; [16]
  Plant response rating, Crabgrass, Large: 95
[4]; [13]
  Crabgrass, Large plant response rating (0 to 100 scale): 98
[4]; [18]
  Plant response rating, Crabgrass, Large: 98
[4]; [17]
  Plant response rating, Crabgrass, Large: 98
[5]; [16]
  Plant response rating, Goosegrass: 65
[5]; [13]
  Goosegrass plant response rating (0 to 100 scale): 70
[5]; [17]
  Plant response rating, Goosegrass: 70
[6]; [16]
  Plant response rating, Johnsongrass: 95
[6]; [13]
  Johnsongrass plant response rating (0 to 100 scale): 100
[6]; [17]
  Plant response rating, Johnsongrass: 100
[7]; [16]
  Plant response rating, Foxtail, Green: 95
[7]; [13]
  Foxtail, Green plant response rating (0 to 100 scale): 98
[7]; [17]
  Plant response rating, Foxtail, Green: 100
Soybean (Glycine max); [16]
  Plant response rating, Soybean: 75
Soybean (Glycine max); [13]
  Soybean plant response rating (0 to 100 scale): 90
Soybean (Glycine max); [17]
  Plant response rating, Soybean: 98
[8]; [16]
  Plant response rating, Ragweed: 75
[8]; [13]
  Ragweed plant response rating (0 to 100 scale): 80
[8]; [17]
  Plant response rating, Ragweed: 98
[9]; [16]
  Plant response rating, Velvetleaf: 80
[9]; [13]
  Velvetleaf plant response rating (0 to 100 scale): 90
[9]; [17]
  Plant response rating, Velvetleaf: 98
Kochia (Kochia scoparia); [16]
  Plant response rating, Kochia: 75
Kochia (Kochia scoparia); [13]
  Kochia plant response rating (0 to 100 scale): 75
Kochia (Kochia scoparia); [17]
  Plant response rating, Kochia: 85
[10]; [16]
  Plant response rating, Cupgrass, Woolly: 75
[10]; [13]
  Cupgrass, Woolly plant response rating (0 to 100 scale): 80
[10]; [18]
  Plant response rating, Cupgrass, Woolly: 90
[10]; [17]
  Plant response rating, Cupgrass, Woolly: 95
[11]; [16]
  Plant response rating, Bermudagrass: 80
[11]; [13]
  Bermudagrass plant response rating (0 to 100 scale): 80
[11]; [18]
  Plant response rating, Bermudagrass: 80
[11]; [17]
  Plant response rating, Bermudagrass: 85

## CCCCn1c(-c2ccccc2)ncc(C(=O)C2=C(O)CCCC2=O)c1=O [Compound 86]
[1]; [16]
  Plant response rating, Lambsquarters: 100
[1]; [13]
  Lambsquarters plant response rating (0 to 100 scale): 100
[1]; [17]
  Plant response rating, Lambsquarters: 100
[2]; [16]
  Plant response rating, Wheat: 5
[2]; [13]
  Wheat plant response rating (0 to 100 scale): 35
[2]; [17]
  Plant response rating, Wheat: 45
[3]; [16]
  Plant response rating, Nutsedge, Yellow: 65
[3]; [13]
  Nutsedge, Yellow plant response rating (0 to 100 scale): 70
[3]; [17]
  Plant response rating, Nutsedge, Yellow: 85
[4]; [16]
  Plant response rating, Crabgrass, Large: 85
[4]; [13]
  Crabgrass, Large plant response rating (0 to 100 scale): 98
[4]; [18]
  Plant response rating, Crabgrass, Large: 98
[4]; [17]
  Plant response rating, Crabgrass, Large: 98
[5]; [16]
  Plant response rating, Goosegrass: 70
[5]; [13]
  Goosegrass plant response rating (0 to 100 scale): 75
[5]; [17]
  Plant response rating, Goosegrass: 95
[6]; [16]
  Plant response rating, Johnsongrass: 95
[6]; [13]
  Johnsongrass plant response rating (0 to 100 scale): 98
[6]; [17]
  Plant response rating, Johnsongrass: 100
[7]; [16]
  Plant response rating, Foxtail, Green: 70
[7]; [13]
  Foxtail, Green plant response rating (0 to 100 scale): 95
[7]; [17]
  Plant response rating, Foxtail, Green: 100
Soybean (Glycine max); [16]
  Plant response rating, Soybean: 80
Soybean (Glycine max); [13]
  Soybean plant response rating (0 to 100 scale): 95
Soybean (Glycine max); [17]
  Plant response rating, Soybean: 98
[8]; [16]
  Plant response rating, Ragweed: 80
[8]; [13]
  Ragweed plant response rating (0 to 100 scale): 90
[8]; [17]
  Plant response rating, Ragweed: 98
[9]; [16]
  Plant response rating, Velvetleaf: 98
[9]; [13]
  Velvetleaf plant response rating (0 to 100 scale): 100
[9]; [17]
  Plant response rating, Velvetleaf: 100
Kochia (Kochia scoparia); [16]
  Plant response rating, Kochia: 75
Kochia (Kochia scoparia); [13]
  Kochia plant response rating (0 to 100 scale): 85
Kochia (Kochia scoparia); [17]
  Plant response rating, Kochia: 98
[10]; [16]
  Plant response rating, Cupgrass, Woolly: 75
[10]; [13]
  Cupgrass, Woolly plant response rating (0 to 100 scale): 85
[10]; [18]
  Plant response rating, Cupgrass, Woolly: 95
[10]; [17]
  Plant response rating, Cupgrass, Woolly: 95
[11]; [16]
  Plant response rating, Bermudagrass: 85
[11]; [13]
  Bermudagrass plant response rating (0 to 100 scale): 90
[11]; [18]
  Plant response rating, Bermudagrass: 95
[11]; [17]
  Plant response rating, Bermudagrass: 95
